Laboratory results taken from patent publication US20120015957A1, “PIPERAZINYL DERIVATIVES USEFUL AS MODULATORS OF THE NEUROPEPTIDE Y2 RECEPTOR” (priority 2007, published 2012).

Biological target: T1, NPY Y2 receptor (Homo sapiens, UniProt P49146)
T1 construct: endogenous in cells; host or cells: KAN-Ts cells (membrane preparation)
T1 sequence (P49146 1-381): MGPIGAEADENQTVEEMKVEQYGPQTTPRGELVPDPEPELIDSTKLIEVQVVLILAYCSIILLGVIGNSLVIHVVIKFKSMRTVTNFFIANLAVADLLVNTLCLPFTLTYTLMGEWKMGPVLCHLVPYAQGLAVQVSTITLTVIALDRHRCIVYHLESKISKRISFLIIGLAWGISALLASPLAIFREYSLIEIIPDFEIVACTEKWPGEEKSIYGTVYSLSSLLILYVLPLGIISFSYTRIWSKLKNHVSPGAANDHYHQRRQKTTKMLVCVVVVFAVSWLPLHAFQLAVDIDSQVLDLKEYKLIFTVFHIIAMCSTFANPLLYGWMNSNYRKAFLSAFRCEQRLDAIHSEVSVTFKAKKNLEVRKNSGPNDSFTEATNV
Experiment: Neuropeptide Y2 radioligand binding assay ([125I]PYY, KAN-Ts cell membranes)
Details: membranes of KAN-Ts cells endogenously expressing Y2 receptors; [125I]PYY 80 pM; 1 h at rt; read-out: IC50 (μM), NPY Y2 binding
Experimental: KAN-Ts endogenously expressing Y2 receptors were used for the radioligand binding assay. Cells were grown to confluence on 150 cm^2 tissue culture plates, washed with phosphate-buffered saline (PBS), and scraped into 50 mL tubes. After centrifugation, the supernatant was aspirated, and the pellets frozen and stored at −80° C. Thawed pellets were homogenized with a polytron tissue grinder for 15 sec in 20 mM Tris-HCl, 5 mM EDTA. The homogenate was centrifuged at 800×g for 5 min and the collected supernatant was recentrifuged at 25000×g for 25 min. The resulting pellet was resuspended in binding buffer (20 mM HEPES, 120 mM NaCl, 0.22 mM KH2PO4, 1.3 mM CaCl2, 0.8 mM MgSO4). Membranes were incubated with [^125I]PYY (80 pM) in the presence or absence of test compound for 1 h at rt. The reaction was stopped by filtration through GF/C filter plates pre-soaked in 0.3% polyethylenimine and subsequently washed with Tris 50 mM, 5 mM EDTA buffer. Plates were dried for 1 h in a 55° C. oven, scintillation fluid was added and the radioactivity was counted in a Packard TopCount. Specific binding to the NPY receptor subtypes was determined by radioactivity that was bound in the presence of […] NPY. Each binding experiment was repeated three to eight times, each in duplicate. IC50 values (i.e. concentration of unlabelled peptide or antagonist required to compete for 50% of specific binding to the radioligand) were determined using the GraphPad Prism software (GraphPad Software Inc., San Diego Calif.) with a fit to a sigmoidal dose response curve. Apparent K values were as K=IC50/(1+C/KD), where C is concentration of the radioligand.

SMILES	IC50 [µM]
CCc1noc(-c2ccc(N3CCN(C(C(=O)N(C)C)c4ccccc4)CC3)c(F)c2)n1 (centres unmarked) [Compound 181, 2-{4-[4-(3-Ethyl-[1,2,4]oxadiazol-5-yl)-2-fluoro-phenyl]-piperazin-1-yl}-N,N-dimethyl-2-phenyl-acetamide]	0.53
Cc1noc(-c2ccc(N3CCN(C(C(=O)N(C)C)c4ccccc4)CC3)c(F)c2)n1 (centres unmarked) [Compound 182, 2-{4-[2-Fluoro-4-(3-methyl-[1,2,4]oxadiazol-5-yl)-phenyl]-piperazin-1-yl}-N,N-dimethyl-2-phenyl-acetamide]	0.56
COC(=O)C(c1ccccc1)N1CCN(c2ccc(-c3nc(C)no3)cc2F)CC1 (centres unmarked) [Compound 183, {4-[2-Fluoro-4-(3-methyl-[1,2,4]oxadiazol-5-yl)-phenyl]-piperazin-1-yl}-phenyl-acetic acid methyl ester]	3.1
CCN(C)C(=O)C(c1ccccc1)N1CCN(c2ccc(-c3nc(C(C)C)no3)cc2F)CC1 (centres unmarked) [Compound 184, N-Ethyl-2-{4-[2-fluoro-4-(3-isopropyl-[1,2,4]oxadiazol-5-yl)-phenyl]-piperazin-1-yl}-N-methyl-2-phenyl-acetamide]	2.2
CC(C)c1noc(-c2ccc(N3CCN(C(C(=O)N4CCCC4)c4ccccc4)CC3)c(F)c2)n1 (centres unmarked) [Compound 185, 2-{4-[2-Fluoro-4-(3-isopropyl-[1,2,4]oxadiazol-5-yl)-phenyl]-piperazin-1-yl}-2-phenyl-1-pyrrolidin-1-yl-ethanone]	0.12
CCN(CC)C(=O)C(c1ccccc1)N1CCN(c2ccc(-c3cc(C)nn3-c3ccccc3)cc2F)CC1 (centres unmarked) [Compound 186, N,N-Diethyl-2-{4-[2-fluoro-4-(5-methyl-2-phenyl-2H-pyrazol-3-yl)-phenyl]-piperazin-1-yl}-2-phenyl-acetamide]	0.11
CCN(CC)C(=O)C(c1ccccc1)N1CCN(c2ccc(-c3cccn3C(=O)OC(C)(C)C)cc2F)CC1 (centres unmarked) [Compound 187, 2-{4-[4-(Diethylcarbamoyl-phenyl-methyl)-piperazin-1-yl]-3-fluoro-phenyl}-pyrrole-1-carboxylic acid tert-butyl ester]	5
CCN(CC)C(=O)C(c1ccccc1)N1CCN(c2ccc(-c3ccc[nH]3)cc2F)CC1 (centres unmarked) [Compound 188, N,N-Diethyl-2-{4-[2-fluoro-4-(1H-pyrrol-2-yl)-phenyl]-piperazin-1-yl}-2-phenyl-acetamide]	0.63
Cc1noc(-c2ccc(N3CCN(C(C(=O)N4CCC(F)(F)CC4)c4ccccc4)CC3)c(F)c2)n1 (centres unmarked) [Compound 189, 1-(4,4-Difluoro-piperidin-1-yl)-2-{4-[2-fluoro-4-(3-methyl-[1,2,4]oxadiazol-5-yl)-phenyl]-piperazin-1-yl}-2-phenyl-ethanone]	0.48
CCNC(=O)C(c1ccccc1)N1CCN(c2ccc(-c3nc(C)no3)cc2F)CC1 (centres unmarked) [Compound 190, N-Ethyl-2-{4-[2-fluoro-4-(3-methyl-[1,2,4]oxadiazol-5-yl)-phenyl]-piperazin-1-yl}-2-phenyl-acetamide]	0.33
CCN(CC)C(=O)C(c1ccccc1)N1CCN(c2ccc(C3=NN(C(C)C)C(=O)C3)cc2F)CC1 (centres unmarked) [Compound 191, N,N-Diethyl-2-{4-[2-fluoro-4-(1-isopropyl-5-oxo-4,5-dihydro-1H-pyrazol-3-yl)-phenyl]-piperazin-1-yl}-2-phenyl-acetamide]	0.34
CCOC(=O)C(c1ccccc1)N1CCN(c2ccc(-c3nc(C)no3)cc2F)CC1 (centres unmarked) [Compound 192, {4-[2-Fluoro-4-(3-methyl-[1,2,4]oxadiazol-5-yl)-phenyl]-piperazin-1-yl}-phenyl-acetic acid ethyl ester]	0.38
CCN(CC)C(=O)C(c1ccccc1)N1CCN(c2ccc(-c3ccccc3)cc2F)CC1 (centres unmarked) [Compound 193, N,N-Diethyl-2-[4-(3-fluoro-biphenyl-4-yl)-piperazin-1-yl]-2-phenyl-acetamide]	0.42
CCN(CC)C(=O)C(c1ccccc1)N1CCN(c2ccc(-c3cccc(Cl)c3)cc2F)CC1 (centres unmarked) [Compound 194, 2-[4-(3′-Chloro-3-fluoro-biphenyl-4-yl)-piperazin-1-yl]-N,N-diethyl-2-phenyl-acetamide]	0.88
CCN(CC)C(=O)C(c1ccccc1)N1CCN(c2ccc(-c3cnn(C)c3)cc2F)CC1 (centres unmarked) [Compound 195, N,N-Diethyl-2-{4-[2-fluoro-4-(1-methyl-1H-pyrazol-4-yl)-phenyl]-piperazin-1-yl}-2-phenyl-acetamide]	0.9
CCN(CC)C(=O)C(c1ccccc1)N1CCN(c2ccc(-c3ccc(Cl)cc3)cc2F)CC1 (centres unmarked) [Compound 196, 2-[4-(4′-Chloro-3-fluoro-biphenyl-4-yl)-piperazin-1-yl]-N,N-diethyl-2-phenyl-acetamide]	0.92
CCc1noc(-c2ccc(N3CCN(C(C(=O)N(C)CC)c4ccccc4)CC3)c(F)c2)n1 (centres unmarked) [Compound 197, N-Ethyl-2-{4-[4-(3-ethyl-[1,2,4]oxadiazol-5-yl)-2-fluoro-phenyl]-piperazin-1-yl}-N-methyl-2-phenyl-acetamide]	0.075
CC(=O)C(c1ccccc1)N1CCN(c2ccc(-c3nc(C(C)C)no3)cc2F)CC1 (centres unmarked) [Compound 198, 1-{4-[2-Fluoro-4-(3-isopropyl-[1,2,4]oxadiazol-5-yl)-phenyl]-piperazin-1-yl}-1-phenyl-propan-2-one]	2.7
CCCCC(C(=O)N(CC)CC)N1CCN(c2ccc(-c3nc(C)no3)cc2F)CC1 (centres unmarked) [Compound 199, 2-{4-[2-Fluoro-4-(3-methyl-[1,2,4]oxadiazol-5-yl)-phenyl]-piperazin-1-yl}-hexanoic acid diethylamide]	2.8
CCN(CC)C(=O)C(c1ccccc1)N1CCN(c2ccc(-c3cc(C)n[nH]3)cc2F)CC1 (centres unmarked) [Compound 200, N,N-Diethyl-2-{4-[2-fluoro-4-(5-methyl-2H-pyrazol-3-yl)-phenyl]-piperazin-1-yl}-2-phenyl-acetamide]	0.81
CCN(CC)C(=O)C(c1ccccc1)N1CCN(c2ccc(-c3ccccn3)cc2F)CC1 (centres unmarked) [Compound 201, N,N-Diethyl-2-[4-(2-fluoro-4-pyridin-2-yl-phenyl)-piperazin-1-yl]-2-phenyl-acetamide]	0.74
CCN(CC)C(=O)C(c1ccccc1)N1CCN(c2ccc(-c3cccnc3)cc2F)CC1 (centres unmarked) [Compound 202, N,N-Diethyl-2-[4-(2-fluoro-4-pyridin-3-yl-phenyl)-piperazin-1-yl]-2-phenyl-acetamide]	1
CCN(CC)C(=O)C(c1ccccc1)N1CCN(c2ccc(-c3ccc(C)cc3)cc2F)CC1 (centres unmarked) [Compound 204, N,N-Diethyl-2-[4-(3-fluoro-4′-methyl-biphenyl-4-yl)-piperazin-1-yl]-2-phenyl-acetamide]	0.77
CCN(CC)C(=O)C(c1ccccc1)N1CCN(c2ccc(-c3ccc(OC)cc3)cc2F)CC1 (centres unmarked) [Compound 205, N,N-Diethyl-2-[4-(3-fluoro-4′-methoxy-biphenyl-4-yl)-piperazin-1-yl]-2-phenyl-acetamide]	1.9
CCN(CC)C(=O)C(c1ccccc1)N1CCN(c2ccc(-c3cccc(C)c3)cc2F)CC1 (centres unmarked) [Compound 206]	0.48
CCN(CC)C(=O)C(c1ccccc1)N1CCN(c2ccc(-c3ccc(F)cc3)cc2F)CC1 (centres unmarked) [Compound 207, 2-[4-(3,4′-Difluoro-biphenyl-4-yl)-piperazin-1-yl]-N,N-diethyl-2-phenyl-acetamide]	1.1
